What was measured:
[1] = target: T1, DENV1 FL NS5 (Dengue virus type 1, UniProt P17763); experiment: DENV1 FL NS5 de novo initiation FAPA assay; assay type: biochemical; conditions: one experiment; read-out: DENV FL NS5 de novo initiation FAPA, IC50, DENV1
T1 construct: 100 nM DENV FL NS5 protein was added; made in house
Experimental: DENV1-4 FL NS5 dnI assays were performed as described previously. Briefly, compounds from 0–20 or -100 μM concentrations are two-fold serially diluted into 384-well black opaque plates (Corning Costar), after which 100 nM DENV FL NS5 protein was added and the plates incubated at RT for 20 min. RNA and ATTO-CTP, ATP, GTP and UTP were then added and the plates incubated for another 120 min. Reactions were stopped with buffer containing 25 nM CIP, re- incubated at RT for 60 min and read on a Tecan Safire II microplate reader. For order-of-addition experiments, DENV4 FL NS5 was incubated for one hour at RT with RNA, ATP, and GTP or RNA, ATP, GTP and ATTO-CTP, followed by exposure to serially diluted compounds for 20 min at RT. The missing components (ATTO-CTP and UTP or UTP alone) were added and the reactions continued for 120 min after which STOP buffer was added as before. All datapoints were performed in duplicate wells. Each compound was tested at least twice.
2 Co mpound testing with DENV dn I FAPA assays. Final dn I assa y reaction mixtures
3 contained 100 nM DENV 5 ´UTR-L-3´UTR IVT RNA, 20 µ M ATP, 20 µM GTP, 20 µM
4 UTP, 5 µM ATTO -CTP, and 100 nM of DENV FL NS5 protein in 15 µl in assa y buffer
5 comprising 50 mM Tris/ HCl, pH 7.5, 10 mM KCl, 1 mM MgCl2, 0.3 mM MnCl2 (DENV2
6 and 4) or 1 mM MnCl 2 (DENV1 and 3), 0.001% Triton- X-100 and 10 µ M cystein e [ 1] . To
7 perform dose-respons e inhibition measurements, compounds from 0- 20 or - 100 µM
8 concentr ations are two -fold seriall y diluted into 384-well black opaqu e plat es (Corning
9 Costar), after which 100 nM DENV FL NS5 protein was added into resp ect ive wells. The
10 plates wer e sealed, b riefl y shak en and centrif uged at 1500 rpm for 30 sec and incubated at RT
11 for 15 min. Thereafter,RNA and ATTO -CTP, ATP, GTP and UTP were added to the wells to
12 start the reactions. The pl ates wer e re-seal ed, shaken and centrifuged as before, followed b y
13 incubation RT for 120 min. Reactions were stopped by addition of 10 µl of 2.5X STOP
14 buffer (200 mM NaCl, 25 mM MgCl2, 1.5M DEA, pH 10; Promega) with 25 nM calf
15 intestinal phosphatase (CIP), re- incubation at RT for 60 min and read on a Tecan Safire II
16 microplate reader. For o r der-of-addition experiments, DENV4 FL NS5 was incubated for one
17 hour at RT with RNA, ATP, and GTP or RNA, ATP, GTP and ATTO-CTP, followed by
18 exposure to seriall y dilut ed compounds for 20 mi n at RT. The missing components (ATTO-
19 CTP and UTP or UTP alone) were added and the reactions continued for 120 min after which
20 STOP buffer was added as before. All datapoints were performed in duplicate wells. Each
21 compound was tested at l east twice.
23 Compound testing in DENV1-4 infected cells by high content imaging. Approximatel y 7
24 × 10^3 A549 cells per well were s eeded into 384-well plates in Ham’s F-12K medium

[2] = system: WNV (New York strain 3356) replicon; experiment: WNV replicon cell-based assay; conditions: 0–50 μM, 2 days
Experimental: (§5) 4 Compound testing in cells transiently expressing DENV and WNV replicon. R enilla
(§6) 5 luciferas e sub-genomic replicon of DENV2 (strai n New Guinea C) or WN V (New York
(§7) 6 strain 3356) cloned into the pACYC plasmid, was in vitro transcribed using a T7 mMessage
(§8) 7 mMachine kit (Ambion, Austin, TX) after linearization with ClaI, as descri bed previousl y
(§9) 8 [5]. A549 cells were electroporated with 10 μg of replicon RNA using a GenePulser Xcell
(§10) 9 system (Bio-Rad, H ercul es, CA) with 3 pulses, at 450 V, 25 µF, at 5- 10 sec intervals.
(§11) 10 Transfected cells wer e seeded into a 96-w ell plate at 1.5 × 10^4 cells per well, followed b y
(§12) 11 treatment with the compound or the dimethyl sulfoxide (DMSO) control and incubation at
(§13) 12 37°C in 5 % CO2. At various time points post-transfection, cells were w ash ed once with
(§14) 13 phosphate-buffered saline (PBS) and l ysed in 20 μl 1× l ysis buffer (Promega, USA) and
(§15) 14 assa yed fo r luciferase si gnals with a Clarit y luminescence microplate reader (BioT ek, USA)
(§16) 15 using the renilla luciferase assa y s ystem (Promega, USA). CellTiter -Glo reagent was added to
(§17) 16 the l ysates to determine t he c ytotoxicit y effects of compounds.Duplicate w ells were seeded
WNV ( New York strain 3356) replicon cDNA was electropo rated in BHK -21 cells, […]
4 from replicon cells were determined b y measuring cellular renilla luciferase levels. […]
5 points were measured in duplicates.

[3] = target: T2, DENV4 FL NS5 Q802N (Dengue virus type 4, UniProt P09866, Q3290N); assay type: binding; conditions: 50 µM compound; for Protein melting temperature, Tm, DENV4 FL NS5 Q802N: DMSO 37
T2 construct: made in house
T2 sequence (P09866 2488-3387 Q3290N): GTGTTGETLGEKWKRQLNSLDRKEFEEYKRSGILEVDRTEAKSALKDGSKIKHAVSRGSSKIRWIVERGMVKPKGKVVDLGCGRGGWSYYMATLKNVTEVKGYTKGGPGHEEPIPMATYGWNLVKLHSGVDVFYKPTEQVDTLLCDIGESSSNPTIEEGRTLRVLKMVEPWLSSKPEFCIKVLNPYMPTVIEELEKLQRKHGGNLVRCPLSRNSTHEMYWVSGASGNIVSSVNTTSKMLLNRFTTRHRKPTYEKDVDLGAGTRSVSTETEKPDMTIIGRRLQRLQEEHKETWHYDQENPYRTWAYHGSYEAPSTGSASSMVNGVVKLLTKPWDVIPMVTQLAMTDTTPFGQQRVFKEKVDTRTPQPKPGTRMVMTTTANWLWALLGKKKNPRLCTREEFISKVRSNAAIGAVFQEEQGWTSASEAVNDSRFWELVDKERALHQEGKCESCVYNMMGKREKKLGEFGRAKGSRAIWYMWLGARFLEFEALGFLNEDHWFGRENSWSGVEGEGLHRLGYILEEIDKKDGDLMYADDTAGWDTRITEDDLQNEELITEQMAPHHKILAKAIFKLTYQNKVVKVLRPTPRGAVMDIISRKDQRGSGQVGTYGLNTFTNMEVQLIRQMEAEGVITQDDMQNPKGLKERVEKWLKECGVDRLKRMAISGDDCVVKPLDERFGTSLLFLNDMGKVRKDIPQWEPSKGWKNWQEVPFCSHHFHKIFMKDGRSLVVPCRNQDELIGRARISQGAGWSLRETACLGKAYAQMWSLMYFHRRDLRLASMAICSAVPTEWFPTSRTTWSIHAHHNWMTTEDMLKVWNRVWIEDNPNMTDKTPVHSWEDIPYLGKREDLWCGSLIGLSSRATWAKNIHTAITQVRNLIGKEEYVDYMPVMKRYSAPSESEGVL

[4] = target: T3, FL NS5 from BHK-21 DENV2-NGC replicon cell lysate (Dengue virus type 2, UniProt P14340); experiment: Cellular thermal shift assay with replicon cell lysate; assay type: binding; conditions: +50 μM compound; DMSO control 42.5
T3 construct: FL NS5 from DENV-replicon lysates; expressed in transfected cells; host or cells: BHK-21 cells carrying a DENV2 (New Guinea C) sub-genomic replicon
Description: 1 Fig. 4.Ph ylo genetic tr ee repres enting relatedn ess of N-pocket amino acid residues from
2 different members of the Flavivirus famil y, derived from Clustal Omega program [ 8] .
(§1) 6 Fi g .5. Ef fects of N -pocket compounds on DENV pol ymerase thermo-stability. Melting
(§2) 7 temperatur e (Tm) w as ass essed b y thermo-d enatur ation in presence of the S YPRO Oran ge
(§3) 8 dye as described in Materials and Methods. (A-F) Representative meltin g curves of DEN V4
10 inhibitors or 5 % DMSO control. (G) Cellular thermal shifts assays [ 9] wer e perfo rmed with
Bri efl y, l ysates w er e
12 incubated with compounds or 5 % DMSO for 1 hr at 4 °C, followed b y heating at 30- 70 °C.
13 Samples were spun and the supernat ants loaded onto 12 % SDS -PAGE gel s , followed b y gel
14 electrophoresis and west ern blotting with anti- DE NV2 NS5 antibody (GeneTex, USA). Table
(§4) 16 controls treated with DMSO.
(1 picture or pasted object on this page, not shown here)

[5] = system: DENV2-NGC EGFP Replicon in BHK21; experiment: Stable BHK21 DENV2-NGC EGFP replicon assay; assay type: cell-based; conditions: Dengue virus, DENV2, BHK-21; 48 hr
[6] = system: DENV4 FL NS5; experiment: Thermo-denaturation assay, recombinant FL NS5; assay type: binding; conditions: for Tm change compared to DMSO control, DENV4 FL NS5 WT: 50 µM compound (Fig 7 in S1 Text); for Protein melting temperature, Tm, DENV4 FL NS5 WT: 50 µM compound, DMSO 37.5 (Fig 7 in S1 Text); for Protein melting temperature Tm with compound, FL NS5: +50 μM compound, DMSO control 42.5
Experimental: Site-directed alanine mutations of DENV4 FL NS5 cDNA were performed using pET28-D4-MY01-22713 NS5FL [23] as a template, according to the manufacturer’s protocol (Stratagene, USA). Protein expressions of DENV1-4 FL NS5 and their stability analyses by thermo-fluorescence were performed as described previously. DENV de novo initiation and elongation FAPA assays were earlier described. […]
as §1, §2, §3
10 inhibitors or 5 % DMSO control. […]
as §4

[7] = system: DENV2-NGC replicon L512V; assay type: cell-based; conditions: electroporated BHK-21; 2 days
[8] = system: DENV2-NGC replicon Wild Type; experiment: Transient WT DENV2-NGC replicon in BHK-21 cells; conditions: Dengue virus, DENV2, BHK-21, 48 h, read-out: EC50, DENV2-NGC Replicon, Wild Type
Experimental: as §5, §6, §7, §8, §9, §10, §11, §12, §13, §14, §15, §16, §17

[9] = system: DENV2-NGC virus Wild Type; experiment: WT DENV2-NGC virus in A549 cells, plaque assay; conditions: Dengue virus, DENV2, A549, 48 h, read-out: EC50, DENV2-NGC Virus, Wild Type
Experimental: 8 Plaque assay. Virus stock was produced b y harvesting the supernatant of DENV2 full -length
9 RNA- transf ected BHK -21 cells at 24, 48, 72, 96, and 120 hours post transfection. Virus titer
10 and morphology were determined by st andard plaque assa y. Briefl y, a seri es of 10 -fold
11 dilutions was prepared by first diluting 50 µl virus stock with 450 µl RPMI 1640 m edia
12 containing 2 % FBS to obtain 10-1 dilution and then further diluted until a final 10 -6 dilution
13 was achieved. Confluent BHK-21 cells (1 × 10^5 cells per well, plated 2 da ys in advance)
14 grown in 24-well plate was added with 200 µl of each dilution per well. Duplicates were
15 prepared for each time point and dilution factor. The infection was allowed to proceed at
16 30°C for 1 hour, followed by removing the m edia and adding 500 µl 0.8% methyl-cellulose
17 overla y (containing RPM I, 2 % FBS, 1 % P/S, 0.05 % NaHCO 3, 25 mM Na Hepes, and
18 0.5 % DMSO) into each well. The plates were incubated for 5 da ys at 37 °C in 5 % CO 2
19 before fixing in 3.7 % formaldehyde and staining with 1 % cr ystal violet. The viral titer was
20 calculated as plaque- forming unit (PFU) per ml.

T1 sequence (P17763 2494-3392): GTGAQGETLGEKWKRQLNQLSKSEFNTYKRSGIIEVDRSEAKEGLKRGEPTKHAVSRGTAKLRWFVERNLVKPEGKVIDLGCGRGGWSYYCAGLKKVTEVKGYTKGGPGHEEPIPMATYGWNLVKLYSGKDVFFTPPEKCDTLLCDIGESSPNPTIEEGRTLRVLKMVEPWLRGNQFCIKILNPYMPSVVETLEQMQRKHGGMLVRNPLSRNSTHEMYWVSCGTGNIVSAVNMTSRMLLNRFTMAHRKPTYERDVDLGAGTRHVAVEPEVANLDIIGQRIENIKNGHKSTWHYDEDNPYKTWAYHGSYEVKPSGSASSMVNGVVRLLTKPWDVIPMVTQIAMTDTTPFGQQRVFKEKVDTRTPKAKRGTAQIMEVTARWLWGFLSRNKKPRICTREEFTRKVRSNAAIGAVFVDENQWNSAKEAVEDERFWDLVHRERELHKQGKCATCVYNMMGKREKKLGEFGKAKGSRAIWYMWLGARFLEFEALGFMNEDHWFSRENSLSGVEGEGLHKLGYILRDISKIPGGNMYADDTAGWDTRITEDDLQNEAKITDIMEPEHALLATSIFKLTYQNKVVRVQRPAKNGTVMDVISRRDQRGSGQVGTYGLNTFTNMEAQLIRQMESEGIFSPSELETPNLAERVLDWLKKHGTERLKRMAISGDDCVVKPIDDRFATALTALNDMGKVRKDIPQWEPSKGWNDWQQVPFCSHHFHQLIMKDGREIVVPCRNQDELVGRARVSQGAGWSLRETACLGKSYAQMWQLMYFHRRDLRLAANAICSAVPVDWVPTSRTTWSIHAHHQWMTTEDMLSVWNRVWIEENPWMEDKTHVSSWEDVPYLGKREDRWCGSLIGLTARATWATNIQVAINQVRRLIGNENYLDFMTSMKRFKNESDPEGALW

With `COc1cccc(S(=O)(=O)NC(=O)c2cc(-c3ccc(C#CCO)s3)c(OC)cc2C)c1` [Compound 26i] as the compound, how does the IC50 [1] read?
The IC50 was 0.024 µM.

How did the “activity in WNV replicon cell-based assay” value [2] turn out when `COc1cccc(S(=O)(=O)NC(=O)c2cc(-c3ccc(C#CCO)s3)c(OC)cc2OC)c1` [Compound 27] was run?
The value was “inactive”.

And the “Tm change compared to DMSO control, DENV4 FL NS5 Q802N” value [3]?
The value was 0.5 °C.

What about the “Protein melting temperature, Tm, DENV4 FL NS5 Q802N” value [3] of the same compound?
Its value is 37.5 °C.

What about the “Protein melting temperature Tm with compound, FL NS5 from BHK-21 DENV2-NGC replicon cell lysate” value [4] of the same compound?
Its value is 47.5 °C.

What about the EC50 [5] of the same compound?
Its EC50 is 3.5 µM.

And the “Tm change compared to DMSO control, DENV4 FL NS5 WT” value [6]?
Its value is 1 °C.

And the “Protein melting temperature, Tm, DENV4 FL NS5 WT” value [6]?
Its value is 38.5 °C.

And the “Protein melting temperature Tm with compound, FL NS5” value [6]?
Its value is 46.5 °C.

And the EC50 [7]?
Its EC50 is 25.9 µM.

And the EC50 [8]?
Its EC50 is 7.83 µM.

What about the EC50 [9] of the same compound?
Its EC50 is 0.87 µM.

With `COc1cc(OC)c(-c2ccc(C#CCO)s2)cc1C(=O)NS(=O)(=O)c1cccc2cccnc12` [Compound 29] as the compound, how does the “activity in WNV replicon cell-based assay” value [2] read?
Its value is “inactive”.

And the “Tm change compared to DMSO control, DENV4 FL NS5 Q802N” value [3]?
Its value is 1.5 °C.

What about the “Protein melting temperature, Tm, DENV4 FL NS5 Q802N” value [3] of the same compound?
Its value is 38.5 °C.

What about the “Protein melting temperature Tm with compound, FL NS5 from BHK-21 DENV2-NGC replicon cell lysate” value [4] of the same compound?
The value was 50 °C.

And the EC50 [5]?
Its EC50 is 5.8 µM.

What about the IC50 [1] of the same compound?
The IC50 was 0.013 µM.

What about the “Tm change compared to DMSO control, DENV4 FL NS5 WT” value [6] of the same compound?
Its value is 3 °C.

What about the “Protein melting temperature, Tm, DENV4 FL NS5 WT” value [6] of the same compound?
The value was 40.5 °C.

What about the “Protein melting temperature Tm with compound, FL NS5” value [6] of the same compound?
Its value is 51.5 °C.

And the EC50 [7]?
The EC50 was 32.3 µM.

What about the EC50 [8] of the same compound?
The EC50 was 6.7 µM.

What about the EC50 [9] of the same compound?
Its EC50 is 1.11 µM.
